In patent US20070207175A1, “Biaromatic compound activators of PPARgamma receptors and cosmetic/pharmaceutical compositions comprised thereof” (GALDERMA RESEARCH & DEVELOPMENT, priority 2004, published 2007):

Legend:
Format in all cases: cell-based
PPARγ = biological target: T1, PPARγ (Homo sapiens, UniProt P37231); test: Crossed-curve PPAR transactivation assay (PPARγ); details: HeLN cells stably transfected with Gal-hPPARγ and luciferase reporter; Schild regression against reference agonist; n.a. means not active; read-out: PPARγ Kdapp
T1 sequence (P37231 238-505 limits assumed): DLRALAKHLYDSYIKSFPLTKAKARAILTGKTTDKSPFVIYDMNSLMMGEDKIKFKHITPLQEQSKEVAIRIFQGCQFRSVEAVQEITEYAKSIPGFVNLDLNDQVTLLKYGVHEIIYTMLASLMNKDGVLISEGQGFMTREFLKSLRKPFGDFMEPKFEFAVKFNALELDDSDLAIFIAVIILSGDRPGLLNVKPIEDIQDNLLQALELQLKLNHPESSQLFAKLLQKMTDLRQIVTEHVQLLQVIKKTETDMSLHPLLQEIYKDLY
Procedure: (§1) Activation of the PPAR receptors by an agonist (activator) in HeLN cells leads to the expression of a reporter gene, luciferase, which, in the presence of a substrate, generates light. The modulation of the PPAR receptors is measured by quantifying the luminescence produced after incubation of the cells in the presence of a reference agonist. The ligands will displace the agonist from its site. The measurement of the activity is performed by quantifying the light produced. This measurement makes it possible to determine the modulatory activity of the compounds according to the invention by the determination of the constant which is the affinity of the molecule for the PPAR receptor. Since this value can fluctuate depending on the basal activity and the expression of the receptor, it is referred to as apparent Kd (Kdapp in nM).
(§2) To determine this constant, “crossed curves” for the test product, against a reference agonist, are prepared using a 96-well plate: 10 concentrations of the test product plus a concentration 0 are arranged in a line, and 7 concentrations of the agonist plus a concentration 0 are arranged in a column. This is 88 measurement points for 1 product and 1 receptor. The remaining 8 wells are used for repeatability controls.
(§3) Measurements are also taken for total agonist controls with the same products.
(§4) The HeLN cell lines used are stable transfectants containing the plasmids ERE-βGlob-Luc-SV-Neo (reporter gene) and PPAR (α, δ, γ) Gal-hPPAR. These cells are seeded in 96-well plates at the rate of 10,000 cells per well in 100 μl of DMEM medium without phenol red and supplemented with 10% of defatted calf serum. The plates are then incubated for 16 hours at 37° C. and 7% CO2.
(§5) The various dilutions of the test products and of the reference ligand are added at the rate of 5 μl per well. The plates are subsequently incubated for 18 hours at 37° C. and 7% CO2. The culture medium is removed by turning over and 100 μl of a 1:1 PBS/luciferin mixture are added to each well. After 5 minutes, the plates are read using the luminescence reader.

PPARδ = biological target: T2, PPARδ (Homo sapiens, UniProt Q03181); test: Crossed-curve PPAR transactivation assay (PPARδ); details: HeLN cells stably transfected with Gal-hPPARδ and luciferase reporter; Schild regression against reference agonist; n.a. means not active; read-out: PPARδ Kdapp
T2 sequence (Q03181 211-441 limits assumed): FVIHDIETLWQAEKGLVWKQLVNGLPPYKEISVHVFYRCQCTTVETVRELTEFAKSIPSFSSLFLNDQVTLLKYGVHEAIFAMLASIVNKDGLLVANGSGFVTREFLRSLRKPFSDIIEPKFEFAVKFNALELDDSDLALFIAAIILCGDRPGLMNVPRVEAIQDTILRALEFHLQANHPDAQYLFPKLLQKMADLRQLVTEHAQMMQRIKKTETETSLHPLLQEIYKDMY
Procedure: as §1, §2, §3, §4, §5

PPARα = biological target: T3, PPARα (Homo sapiens, UniProt Q07869); test: Crossed-curve PPAR transactivation assay (PPARα); details: HeLN cells stably transfected with Gal-hPPARα and luciferase reporter; Schild regression against reference agonist; n.a. means not active; read-out: PPARα Kdapp
T3 sequence (Q07869 200-468 limits assumed): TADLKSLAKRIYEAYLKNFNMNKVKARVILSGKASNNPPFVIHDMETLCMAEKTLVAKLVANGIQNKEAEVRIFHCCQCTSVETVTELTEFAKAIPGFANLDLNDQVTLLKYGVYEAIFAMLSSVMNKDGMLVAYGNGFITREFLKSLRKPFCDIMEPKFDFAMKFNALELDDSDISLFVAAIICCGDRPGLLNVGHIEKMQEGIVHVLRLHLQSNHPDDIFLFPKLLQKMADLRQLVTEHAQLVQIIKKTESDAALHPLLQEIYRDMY
Procedure: as §1
To determine this constant, “crossed curves” for the test product, against a reference agonist, are prepared using a 96-well plate: 10 concentrations of the test product plus a concentration 0 are arranged in a line, and 7 concentrations of the agonist plus a concentration 0 are arranged in a column. This is 88 measurement points for 1 product and 1 receptor. […]
The various dilutions of the test products and of the reference ligand are added at the rate of 5 μl per well. […] After 5 minutes, the plates are read using the luminescence reader.

Q: For CCCCOc1cc(CCC(=O)O)ccc1-c1cccc(CN(C)C(=O)c2ccc(OCC)cc2)c1 [Example 12, 3-(2-butoxy-3′-{[(4-ethoxybenzoyl)(methyl)amino]methyl}biphenyl-4-yl)propanoic acid], which Kd (PPARγ) is on record?
A: 0.00025 µM

Q: CCCCOc1cc(CCC(=O)O)ccc1-c1cccc(CN(C)C(=O)c2ccccc2)c1 [Example 14, 3-{3′-[((benzoyl)(methyl)amino)methyl]-2-butoxybiphenyl-4-yl}propanoic acid] was tested. Which Kd (PPARγ) did it give?
A: 0.008 µM

Q: How did the Kd (PPARδ) turn out when CCCCCCC(=O)N(C)Cc1cccc(-c2ccc(CCC(=O)O)cc2OCCCC)c1 [Example 11, 3-{2-butoxy-3′-[((heptanoyl)(methyl)amino)methyl]biphenyl-4-yl}propanoic acid] was run?
A: 4 µM

Q: And the Kd (PPARα)?
A: 0.5 µM

Q: What about the Kd (PPARγ) of the same compound?
A: 0.001 µM

Q: How did the Kd (PPARγ) turn out when CCCCCCCC(=O)N(C)Cc1cccc(-c2ccc(/C=C/C(=O)O)c(F)c2)c1 [Example 3, 3-{3-fluoro-3′-[((methyl)(octanoyl)amino)methyl]biphenyl-4-yl}acrylic acid] was run?
A: 0.06 µM

Q: How did the Kd (PPARδ) turn out when CCCCOc1cc(CCC(=O)O)ccc1-c1cccc(CN(C)C(=O)CCCC)c1 [Example 10, 3-{2-butoxy-3′-[((methyl)(pentanoyl)amino)methyl]biphenyl-4-yl}propanoic acid] was run?
A: 4 µM

Q: What about the Kd (PPARγ) of the same compound?
A: 0.004 µM

Q: Which Kd (PPARγ) does the source give for CCCCCCCC(=O)N(C)Cc1cccc(-c2ccc(CCC(=O)O)c(F)c2)c1 [Example 4, 3-[3-fluoro-3′-[((methyl)(octanoyl)amino)methyl]biphenyl-4-yl)propanoic acid] here?
A: 0.25 µM

Q: With CCCCCCCC(=O)NCc1cccc(-c2ccc(CCC(=O)O)cc2)c1 [Example 6, 3-[3′-((octanoylamino)methyl)biphenyl-4-yl]propanoic acid] as the compound, how does the Kd (PPARγ) read?
A: 4 µM

Q: With CCCCCCCC(=O)N(C)Cc1cccc(-c2ccc(/C=C/C(=O)O)cc2)c1 [Example 1, 3-(3′-[((methyl)(octanoyl)amino)methyl]biphenyl-4-yl)acrylic acid] as the compound, how does the Kd (PPARγ) read?
A: 0.5 µM

Q: With CCCCCCCC(=O)N(C)Cc1cccc(-c2ccc(CCC(=O)O)cc2)c1 [Example 2, 3-{3′-[((methyl)(octanoyl)amino)methyl]biphenyl-4-yl}propanoic acid] as the compound, how does the Kd (PPARγ) read?
A: 0.12 µM

Q: CCCCCCCC(=O)N(C)Cc1cccc(-c2ccc(CCC(=O)O)cc2OCCCC)c1 [Example 8, 3-{2-butoxy-3′-[((methyl)(octanoyl)amino)methyl]biphenyl-4-yl}propanoic acid] was tested. Which Kd (PPARγ) did it give?
A: 0.001 µM

Q: For CCCCOc1cc(CCC(=O)O)ccc1-c1cccc(CN(C)C(=O)c2ccc(OC)cc2)c1 [Example 15, 3-(2-butoxy-3′-{[(4-methoxybenzoyl)(methyl)amino]methyl}biphenyl-4-yl)propanoic acid], which Kd (PPARδ) is on record?
A: 4 µM

Q: What about the Kd (PPARγ) of the same compound?
A: 0.0005 µM

Q: CCCCCCCC(=O)N(C)Cc1cccc(-c2ccc(CCC(=O)O)c(O)c2)c1 [Example 7, 3-{3-hydroxy-3′-[((methyl)(octanoyl)amino)methyl]biphenyl-4-yl}propanoic acid] was tested. Which Kd (PPARγ) did it give?
A: 4 µM

Q: CCCCCC(=O)N(C)Cc1cccc(-c2ccc(CCC(=O)O)cc2OCCCC)c1 [Example 9, 3-{2-butoxy-3′-[((hexanoyl)(methyl)amino)methyl]biphenyl-4-yl}propanoic acid] was tested. Which Kd (PPARδ) did it give?
A: 4 µM

Q: And the Kd (PPARα)?
A: 4 µM

Q: What about the Kd (PPARγ) of the same compound?
A: 0.004 µM

Q: For CCCCOc1ccc(C(=O)N(C)Cc2cccc(-c3ccc(CCC(=O)O)cc3OCCCC)c2)cc1 [Example 13, 3-(2-butoxy-3′-{[(4-butoxybenzoyl)(methyl)amino]methyl}biphenyl-4-yl)propanoic acid], which Kd (PPARγ) is on record?
A: 0.001 µM

Q: Which results are given for CCCCOc1cc(CCC(=O)O)ccc1-c1cccc(CN(C)C(=O)c2cccc(OC)c2)c1 [Example 16, 3-(2-butoxy-3′-{[(3-methoxybenzoyl)(methyl)amino]methyl}biphenyl-4-yl)propanoic acid]?
A: Kd (PPARδ): 4 µM; Kd (PPARγ): 0.004 µM
